Assay results reported in patent publication US20160095867A1, “BET INHIBITION THERAPY FOR HEART DISEASE” (DANA-FARBER CANCER INSTITUTE, INC., priority 2013, published 2016).

Legend:
[1] = test system: mice subject to TAC; experiment: Transverse aortic constriction (TAC) model, JQ1 begun 1.5 days after TAC; type: in vivo, mouse
Method: JQ1 was synthesized and purified in the laboratory of Dr. James Bradner (DFCI) as previously published (Filippakopoulos et al., 2010). For in vivo experiments, a stock solution (50 mg/mL in DMSO) was diluted to a working concentration of 5 mg/mL in aqueous carrier (10% hydroxypropyl β-cyclodextrin; Sigma C0926) using vigorous vortexing. Mice were injected at a dose of 50 mg/kg given intraperitoneally once daily. Vehicle controls were given an equal amount of DMSO in carrier solution. All solutions were prepared and administered using sterile technique. For in vitro experiments, JQ1 and other BET inhibitors were dissolved in DMSO and administered to cells at indicated concentrations using an equal volume of DMSO as control. The BET inhibitors used were as follows: iBET, iBET-151, RVX-208, and PF-1.
All mice were C57Bl/6J littermate males aged 10-12 weeks. For TAC, mice were anesthetized with ketamine/xylazine, mechanically ventilated (Harvard apparatus), and subject to thoracotomy. The aortic arch was constricted between the left and right carotid arteries using a 7.0 silk suture and a 27-gauge needle as previously described (Hu et al., 2003). In our hands, this protocol a consistent peak pressure gradient of approximately 50 mmHg across the constricted portion of the aorta. For PE infusion, mice were anesthetized using continuous 1% inhalational isofluorane. Mini-osmotic pumps (Alzet 2004, Durect Corp.) were filled with phenylephrine hydrochloride (PE, Sigma) or vehicle (normal saline) and implanted subcutaneously on the dorsal aspect of the mouse. PE was infused at a dose of 75 mg/kg/day for 17 days. Injections of JQ1 or vehicle were begun 1.5 days postoperatively.
For transthoracic echocardiography, mice were anesthetized with 1% inhalational isofluorane and imaged using the Vevo 770 High Resolution Imaging System (Visual Sonics, Inc.) and the RMV-707B 30 MHz probe. Measurements were obtained from M-mode sampling and integrated EKV images taken in the LV short axis at the mid-papillary level (Haldar et al., 2010). Measurements of pressure gradients across the constricted portion of the aorta were obtained by high frequency Doppler as previously described (Liu et al., 2012). Conscious tail-vein systolic blood pressure was measured using the BP2000 Blood Pressure Analysis System (Visitech Systems, Inc.) as recommended by the manufacturer. To allow mice to adapt to the apparatus, we performed daily blood pressure measurements for one week prior to beginning experiments. Treadmill endurance exercise testing was performed on a motorized mouse treadmill (Columbus Instruments) as previously described (Haldar et al., 2012).
Short-axis heart sections from the mid-ventricle were fixed in PBS/4% paraformaldehyde and embedded in paraffin. Cardiomyocyte cross sectional area was determined by staining with rhodamine-conjugated wheat-germ agglutinin (Vector Laboratories RL-1022) as quantified as previously described (Froese et al., 2011). Fibrosis was visualized using Masson's Trichrome staining kit (Biocare medical) with quantification of fibrotic area as previously described (Song et al., 2010). Terminal deoxynucleotidyl transferase dUTP nick-end label (TUNEL) staining and quantification was performed as previously described (Song et al., 2010) using the ApopTag Plus kit (Millipore) according to manufacturer's instructions. Myocardial capillary staining was performed in frozen LV sections using anti-PECAM-1 antibodies (EMD Millipore cat#CBL-1337) as previously described (Haldar et al., 2010).

[2] = test system: NRVM; experiment: PE-mediated pathologic gene induction in NRVM (qRT-PCR, gene expression profiling); type: cell-based, rat
Method: NRVM were isolated from the hearts of 2 day old Sprague-Dawley rat pups (Charles River) and maintained under standard conditions as described (Haldar et al., 2010). The cells were differentially plated for 1.5 h in cell culture dishes to remove contaminating non-myocytes. Unless otherwise stated, NRVM were plated at a density of 10^5 cells/mL. Cells were initially plated in growth medium (DMEM supplemented with 5% FBS, 100 U/mL penicillin-streptomycin, and 2 mM L-glutamine) for 24-36 hours and maintained in serum-free media thereafter (DMEM supplemented with 0.1% BSA, 1% insulin-transferrin-selenium liquid media supplement (Sigma 13146), 100 U/mL penicillin-streptomycin, and 2 mM L-glutamine). Media was changed every 2-3 days. Prior to stimulation with agonists, NRVM were maintained in serum-free medium for 48-72 hours. For hypertrophic stimulation, NRVM were incubated with JQ1 versus DMSO at indicated concentrations for 6 h followed by stimulation with PE (100 μM) for indicated timepoints.
For tissue RNA, a 10-20 mg piece of mouse heart tissue was preserved in RNA Later stabilization reagent (Qiagen) followed by mechanical disruption/homogenization in PureZOL (BioRad) on a TissueLyser (Qiagen) using stainless steel beads (Qiagen). The aqueous phase was extracted with chloroform. RNA was purified from the aqueous phase using the Aurum purification kit (BioRad #732-6830) following manufacturer's instructions. For cellular samples, total RNA from NRVM was isolated using the High Pure RNA isolation kit (Roche #11828665001) with on-column DNAase treatment according to manufacturer's directions. Purified RNA was reverse transcribed to complementary DNA using the iScript™ RT Supermix (Biorad #170-8841) following manufacturer's protocol. Quantitative real-time PCR was performed using TaqMan chemistry (Fast Start Universal Probe Master (Roche cat#4914058001) and labeled probes from the Roche Universal Probe Library System) on a Roche LightCycler. Relative expression was calculated using the AACt-method with normalization to constitutive genes as indicated.
To determine the transcriptional effects of BET bromodomain inhibition during hypertrophic transformation, gene expression profiling (GEP) studies were performed in cultured NRVM at baseline and after PE stimulation (1.5, 6, 48 h) in the presence or absence of JQ1. These three timepoints were assessed to capture induction of early response genes such as c-Myc (Starksen et al., 1986) and the final hypertrophic gene program. […] A heat map of genes selected based on the highest magnitude of PE-mediated changes illustrates each of these clusters (FIG. 3A). […]

[3] = JQ1 50 mg/kg/day IP from 1.5 days after TAC, out to 4 weeks

Compound: Cc1sc2c(c1C)C(c1ccc(Cl)cc1)=N[C@@H](CC(=O)OC(C)(C)C)c1nnc(C)n1-2 [JQ1]
- tolerability during TAC (activity, mortality, weight loss vs vehicle) ([1]; JQ1 50 mg/kg/day): well tolerated
- TAC-mediated LV cavity dilation (echocardiography) [1, 3]: protected against
- TAC-mediated LV systolic dysfunction (echocardiography) [1, 3]: protected against
- TAC-mediated LV wall thickening (echocardiography) [1, 3]: protected against
- pathologic cardiomegaly (HW/BW) ([1]; JQ1 50 mg/kg/day, 4 weeks TAC): inhibited
- pulmonary congestion (LW/BW) ([1]; JQ1 50 mg/kg/day, 4 weeks TAC): inhibited
- myocardial expression of canonical hypertrophic marker genes ([1]; JQ1 50 mg/kg/day, after TAC): inhibited
- effect on LV structure or function in sham treated mice ([1]; JQ1 50 mg/kg/day, sham surgery): no adverse effect
- TAC-mediated induction of c-Myc expression in vivo ([1]; TAC mouse hearts, qRT-PCR): no effect
- evolution of pathological gene expression program in the heart (microarray GEP) ([1]; TAC, 3, 11 and 28 days): suppressed
- apoptotic cell death (TUNEL) ([1]; heart tissue, 4 weeks of TAC): significantly attenuated
- capillary rarefaction (PECAM-1) ([1]; heart tissue, 4 weeks of TAC): significantly attenuated
- development of cardiomyocyte hypertrophy (wheat germ agglutinin, cardiomyocyte area) ([1]; heart tissue, 4 weeks of TAC): significantly attenuated
- myocardial fibrosis (Masson's Trichrome) ([1]; heart tissue, 4 weeks of TAC): significantly attenuated
- PE-mediated gene induction, global gene expression profiling ([2]; 500 nM JQ1, 100 μM PE, 1.5, 6, 48 h): attenuate or completely abrogate
- PE-mediated c-myc induction (qRT-PCR) ([2]; JQ1 500 nM, PE 100 μM): does not suppress
- PE-mediated induction of IL6 (qRT-PCR) ([2]; JQ1 500 nM, PE 100 μM): significantly attenuated
- PE mediated pathologic gene induction (hypertrophic marker genes, qRT-PCR) ([2]; JQ1 500 nM, PE 100 μM, 48 h): significantly blocked
